The subject of data set [1] is rabbits. The experiment in a line: In vivo study of intraocular pressure reducing activity, intracameral injection. The method, then:
(§1) Pyridine-1,2,3,6-tetrahydro-5-(5-isoxazolyl)-1-methyl-ethanedioate ("test compound") or pilocarpine were applied either topically into the eyes of owl monkeys (200 µg in 10 µl) or intracamerally into the eye of rabbits (10 µg in 20 µl). Control animals were treated with a saline vehicle. Pupil diameter and IOP were measured for 0-6 hours. IOP was measured using pneumatometer (Digilab/ Biorad) and pupil diameter was measured using Optistick ruler (Allergan). Animals used in these studies had normal intraocular pressure.
(§2) Muscarinic activity was determined by treatment with atropine (muscarinic antagonist). In rabbits 5 µg atropine was coinjected with the test compounds and in owl monkey 5 µg atropine (10 µl) was applied 30 minutes before treatment with the test compound.
(§3) Intraocular pressure (mmHg) or pupil diameter (mm) were expressed as changes from time 0.

The subject of data set [2] is owl monkeys. The experiment in a line: In vivo study of intraocular pressure reducing activity, topical application. Here is the method:
as §1, §2, §3

The test system of data set [3] is rabbits. The experiment in a line: Pupil diameter (miosis), intracameral injection. Here is the method: as §1, §2, §3
The test system of data set [4] is owl monkeys. The experiment in a line: Pupil diameter (miosis), topical application. The method, then:
as §1, §2, §3

For data set [5], the system named is cat ciliary smooth muscle. The data set is described as follows: In vitro contraction of isolated ciliary smooth muscle in organ bath. The format is cell-based. The settings on record: for EC50: cumulative dose response, 37°C, read-out: ED50 (concentration that caused 50% of maximum contraction). The method, then: (§4) Iris sphincter and ciliary smooth muscles were excised from freshly enucleated cat eyes. The tissues were placed in an organ bath containing Tyrode's solution (composition in mM: NaCl 137, KCl 2.7, CaCl2 1.8, MgCl2 1.05, NaHCO3 11.9, NaH2PO4 0.42, D-glucose 5.6) at 37°C, aerated with 95% oxygen and 5% carbon dioxide. One end of the tissue was fastened to a hook in the bath and the other end was attached to a force displacement transducer connected to a polygraph. The tissues were allowed to equilibrate for 60 minutes under a load of 100-200 mg tension. […] Increasing concentrations of the test compound (0.1 - 1000 µM) were then added into the bath to generate cumulative dose response. […] Results were from three or more experiments expressed as mean ± S.E.

The test system of data set [6] is cat iris sphincter smooth muscle. The experiment in a line: In vitro contraction of isolated iris sphincter smooth muscle in organ bath. Format: cell-based. Conditions: for EC50: cumulative dose response, 37°C, read-out: ED50 (concentration that caused 50% of maximum contraction). The method, then: as §4
Data set [7] has as its system rabbits. Conditions: normotensive rabbits or humans, from literature; cited from earlier work.
Where [8] appears, read: topical 5 µg/10 µl atropine, test compound 200 µg/10 µl.

“Also recorded” adds a separate entry of the source. Read-outs that look alike come from different tables or passages of the source.

`CN1[C@@H]2CC[C@H]1C[C@@H](OC(=O)C(CO)c1ccccc1)C2` (some centres unmarked) [atropine]: the “inhibition of IOP effect of the test compound by atropine” value in the data set on rabbits [1] (rabbits, 5 µg/20 µl atropine coinjected with test compound 10 µg/20 µl) was “partial inhibition”; with rabbits [1] (rabbits, topical 0.5% atropine solution every 2 hours (data not shown)), “no inhibitory effect”. Also, the “inhibition of IOP reducing effect of the test compound by atropine” value in the data set on owl monkeys [2] (setting [8]) is given as “no inhibitory effect”. For the same compound, the “inhibition of miotic effect of the test compound by atropine” value in the data set with rabbits [3] (5 µg atropine with test compound 10 µg/20 µl intracameral) and in the data set on owl monkeys [4] (setting [8]) was “completely inhibited” throughout. For the same compound, the “inhibition of test compound-induced contraction by atropine” value is “competitive inhibition” in data set [5] (10 nM atropine for 30 minutes before test compound) and “competitive inhibition” in data set [6] (cat iris sphincter muscle, 10 nM atropine for 30 minutes before test compound). Also, in data set [6] (10 nM atropine, iris versus ciliary muscle), the “effect of atropine in inhibiting the response of the iris relative to the ciliary” value was determined as 2.5 times.

For `CC[C@@H]1C(=O)OC[C@@H]1Cc1cncn1C` [pilocarpine, (3S,4R)-3-ethyl-4-{(1-methyl-1H-imidazol-5-yl)methyl}-3,4-dihydro-2(3H)-furanone], the “effect on IOP” value in the data set on rabbits [1] (normotensive rabbits, intracameral 10 µg/20 µl, result in words) is listed as “no hypotensive effect; also recorded: slight hypertensive action”. Also, the “decrease in IOP” value with owl monkeys [2] (topical 200 µg/10 µl, at 3 hours, effect decreased thereafter) is listed as “about 3 mmHg”; in the data set with rabbits [7], “little or no decrease”. For the same compound, the EC50 in data set [5] (Felis catus) turned out to be 4 µM; in data set [6] (Felis catus, cat iris sphincter muscle), 4 µM.

On to `CN1CCC=C(c2ccno2)C1.O=C(O)C(=O)O` [test compound, Pyridine-1,2,3,6-tetrahydro-5-(5-isoxazolyl)-1-methyl-ethanedioate], for which the “decrease in IOP” value with rabbits [1] (normotensive rabbits, intracameral 10 µg/20 µl, 5 hours after administration, change from time 0) stood at 6 mmHg. Further, the “duration of IOP decreasing activity” value in the data set with rabbits [1] (rabbits, intracameral 10 µg/20 µl, experimental period ended at 6 hours) was > 6 h. For the same compound, the “maximum decrease in IOP” value with owl monkeys [2] (topical 200 µg/10 µl, after 5 and 6 hours) came out at 4 mmHg. For the same compound, the “duration of IOP reducing effect” value with owl monkeys [2] (topical 200 µg/10 µl, experimental period of 6 hours) is > 6 h. Besides, in the data set with rabbits [3] (intracameral 10 µg/20 µl, effect of pilocarpine greater than that of the test compound), the miosis result is reported as “caused miosis”. The “time of maximum miotic response” value in the data set with rabbits [3] (intracameral 10 µg/20 µl, followed by recovery) was found to be 0.5 h. Also, in the data set on owl monkeys [4] (topical 200 µg/10 µl, at 1 hour), the “miosis, decrease in pupil size” value is recorded as 48%. For the same compound, the “miosis, recovered to % of 0 time” value in the data set with owl monkeys [4] (topical 200 µg/10 µl, within 3 to 6 hours) was determined as 15%. Moreover, the results for the EC50 in data set [5] and in data set [6] (cat iris sphincter muscle) were 30 µM and 20 µM, respectively.

(Values after EP0561913B1, “USE OF PYRIDINE DERIVATIVES IN THE TREATMENT OF OCULAR HYPERTENSION” (ALLERGAN, INC., priority 1990, dated 1992).)
